Assay results from US20090131520A1, “Lipid metabolism Improving Composition” (priority 2005, published 2009).

Legend:
apolipoprotein A (A1) = assay: Secretion of apolipoprotein A (A1) from HepG2 cells into the test medium, ELISA; assay type: cell-based, human; conditions: 150 μM, 24 hr culture, FIG. 2
Method: (§1) A test medium containing 150 μM of linolic acid menthol ester (1% BSA-DMEM) was provided. In this test medium, human liver-derived HepG2 cells were cultured for 24 hr, and the cells and the medium were collected.
(§2) Evaluation 2: Test on Secretion (Inhibition/Enhancement) of Apolipoproteins A and B
(§3) The amount of apolipoprotein A (A1) and apolipoprotein B (B100) secreted from the human liver-derived HepG2 cells into the test medium was measured by the ELISA method.

apolipoprotein B (B100) = assay: Secretion of apolipoprotein B (B100) from HepG2 cells into the test medium, ELISA; assay type: cell-based, human; conditions: 150 μM, 24 hr culture, FIG. 1
Method: as §1, §2, §3

With `CCCCC/C=C\C/C=C\CCCCCCCC(=O)OC1CC(C)CCC1C(C)C` (centres unmarked) [linolic acid menthol ester] the “amount of apolipoprotein A (A1) secreted” value (apolipoprotein A (A1)) was “significantly enhance the secretion of apolipoprotein A (A1)” and the “amount of apolipoprotein B (B100) secreted” value (apolipoprotein B (B100)) was “inhibit the secretion of apolipoprotein B (B100)”.
